The source of these data is patent US20100121049A1, “INDENOISOQUINOLINONE ANALOGS AND METHODS OF USE THEREOF” (INOTEK PHARMACEUTICALS CORPORATION, priority 2007, published 2010).

Structures can show the parent of a compound that is named as a salt.

This assay deals with T1, PARP (Mus musculus, UniProt P11103).
T1 construct: PARP Activity in Cultured Macrophages, Using a Whole-Cell Based Assay; host or cells: murine RAW macrophages
T1 sequence (P11103 whole entry): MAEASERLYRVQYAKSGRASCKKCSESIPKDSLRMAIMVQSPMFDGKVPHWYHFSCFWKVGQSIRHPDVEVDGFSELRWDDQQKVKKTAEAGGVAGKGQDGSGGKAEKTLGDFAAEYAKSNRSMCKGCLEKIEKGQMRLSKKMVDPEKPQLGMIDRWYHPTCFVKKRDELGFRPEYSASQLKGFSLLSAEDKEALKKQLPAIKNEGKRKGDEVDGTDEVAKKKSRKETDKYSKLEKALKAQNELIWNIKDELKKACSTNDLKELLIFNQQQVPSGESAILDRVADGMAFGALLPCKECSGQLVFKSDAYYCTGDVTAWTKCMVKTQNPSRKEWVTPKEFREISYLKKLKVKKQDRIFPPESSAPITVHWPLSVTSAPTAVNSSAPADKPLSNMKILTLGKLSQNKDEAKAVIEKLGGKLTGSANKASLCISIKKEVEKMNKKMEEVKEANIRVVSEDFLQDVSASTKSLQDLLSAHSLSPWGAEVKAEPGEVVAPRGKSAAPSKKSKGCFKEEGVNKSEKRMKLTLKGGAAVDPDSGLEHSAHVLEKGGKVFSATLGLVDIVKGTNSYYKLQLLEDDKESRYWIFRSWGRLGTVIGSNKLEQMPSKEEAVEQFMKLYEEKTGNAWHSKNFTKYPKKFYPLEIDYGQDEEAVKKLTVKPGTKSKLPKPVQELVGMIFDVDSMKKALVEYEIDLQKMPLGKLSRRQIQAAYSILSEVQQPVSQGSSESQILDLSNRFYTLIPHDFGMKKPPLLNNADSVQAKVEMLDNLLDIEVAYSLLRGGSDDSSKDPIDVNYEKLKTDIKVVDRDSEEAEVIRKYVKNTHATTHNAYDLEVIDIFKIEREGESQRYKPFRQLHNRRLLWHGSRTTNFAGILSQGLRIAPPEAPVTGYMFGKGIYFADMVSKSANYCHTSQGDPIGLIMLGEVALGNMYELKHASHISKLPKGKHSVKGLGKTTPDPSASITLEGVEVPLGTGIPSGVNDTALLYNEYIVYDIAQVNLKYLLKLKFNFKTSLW
The experiment in a line: PARP activity in cultured macrophages, whole-cell based assay (3H-NAD+ incorporation after hydrogen peroxide). The conditions noted are these: murine RAW macrophages; compound 1 hour prior to hydrogen peroxide (0.5 mM) for 25 minutes; PARP activity by 3H-NAD+. The procedure: Effect of Indenoisoquinolinone Analogs on PARP Activity in Cultured Macrophages, Using a Whole-Cell Based Assay
The murine RAW macrophages (ATCC, American Type Culture Collection, Manassas, Va.) were grown in RPMI […] (Invitrogen Life Technologies; Carlsbad, Calif.) medium supplemented with 10% heat-inactivated FBS, 2 mM L-glutamine, and 100 U/ml of penicillin and streptomycin. Cells, between passages 5 and 15, were seeded at a density of 250,000 cells/well in 12 well plates and allowed to grow 48 hours before use. Growth medium was changed on the day of use. Cells were treated with an Indenoisoquinolinone Analog diluted in a growth medium supplemented with 10% fetal bovine serum (FBS) for 1 hour prior to the addition of hydrogen peroxide (0.5 mM) for a further 25 minutes. For the measurement of PARP activity, media was removed and replaced with 0.5 ml of the assay buffer (56 mM HEPES-pH 7.5, 28 mM KCl, 28 mM NaCl, 2 mM MgCl2, 0.01% digitonin, and 0.5 μCi/m1 of ^3H-NAD^+) for 20 minutes. After aspirating the assay buffer, cells were lysed and transferred to eppendorf tubes containing 250 μl of 50% ice-cold trichloroacetic acid (TCA), which were then placed at 4° C. for 4 hours. Samples were centrifuged at 10,000 g for 10 minutes and supernatant removed. The pellets were washed twice with 500 μl of ice-cold 5% w/v TCA. The pellets were then solubilized in 250 μl of NaOH (0.1 M) containing 2% SDS overnight at 37° C. and the PARP activity was then determined by measuring the radioactivity incorporated using a Wallac scintillation counter. The solubilized protein (250 μl) was mixed with 5 ml of scintillation fluid (ScintiSafe Plus, Fisher Scientific) before being counted for 3 minutes. EC50 values were determined from a dose-response curve.
Turning to `O=c1[nH]c2c(c3ccccc13)Cc1cc(CN3CCC(F)(F)CC3)ccc1-2` [Methylsulfonate salt of IIIb-15, 9-[1-(4,4-Difluoropiperidino)methyl]-5,6-dihydro-5-oxo-11-H-indeno[1,2-c]isoquinoline methylsulfonate], the EC50 (in general, the concentration giving half of the maximal effect) was 55 nM. As for `O=c1[nH]c2c(c3cccc(Cl)c13)Cc1c(CNC3CCCC3)cccc1-2` [Va-1, 4-chloro-10-((cyclopentylamino)methyl)-6,11-dihydro-5H-indeno[1,2-c]isoquinolin-5-one], the EC50 was > 100 nM. The same measure for `O=c1[nH]c2c(c3ccc(F)cc13)Cc1c(CNC3CCCC3)cccc1-2` [Va-3, 10-((cyclopentylamino)methyl)-3-fluoro-6,11-dihydro-5H-indeno[1,2-c]isoquinolin-5-one]: 9 nM. Compound `O=c1[nH]c2c(c3cccc(F)c13)Cc1c(CNC3CCCC3)cccc1-2` [Va-4, 10-((cyclopentylamino)methyl)-4-fluoro-6,11-dihydro-5H-indeno[1,2-c]isoquinolin-5-one] had a half-maximal effective concentration (EC50) of 4 nM. Then `O=c1[nH]c2c(c3ccc(F)cc13)Cc1c(CNC3CCOCC3)cccc1-2` [Va-5, 3-fluoro-10-((tetrahydro-2H-pyran-4-ylamino)methyl)-6,11-dihydro-5H-indeno[1,2-c]isoquinolin-5-one], with 5 nM; and `O=c1[nH]c2c(c3c(F)cccc13)Cc1c(CNC3CCCC3)cccc1-2` [Va-7, 10-((cyclopentylamino)methyl)-1-fluoro-6,11-dihydro-5H-indeno[1,2-c]isoquinolin-5-one], with 5 nM; and `O=c1[nH]c2c(c3ccccc13)Cc1c(CNC3(CO)CCCC3)cc(F)cc1-2` [Va-9, 8-fluoro-10-((1-(hydroxymethyl)cyclopentylamino)methyl)-6,11-dihydro-5H-indeno[1,2-c]isoquinolin-5-one], with 3 nM. The same measure for `O=c1[nH]c2c(c3ccc(F)cc13)Cc1c(CNC3(CO)CCCC3)cc(F)cc1-2` [Va-10, 3,8-difluoro-10-((1-(hydroxymethyl)cyclopentylamino)methyl)-6,11-dihydro-5H-indeno[1,2-c]isoquinolin-5-one]: 3 nM.
